Like-named read-outs stand apart in the source and are kept apart here.
Columns and labels:
[1] = molecular target: T1, hVR1 receptors (Homo sapiens, UniProt Q8NER1); assay: [3H] RTX binding assay, human VR1; design: expressed in transfected cells; host or cells: HEK293 (membrane preparation); settings: inhibition of [3H] RTX binding, membranes of HEK293 cells transfected with human VR1
Procedure: Compounds of the present invention were tested for their ability to inhibit the binding of [^3H] RTX to hVR1 receptors in a [^3H] RTX binding assay as previously described (Zhang, Sui-Po. Improved ligand binding assays for vanilloid receptors. PCT Int. Appl. (2002), 29 pp. CODEN: PIXXD2 WO 0233411 A1 20020425 AN 2002:315209; Grant, Elfrida R.; Dubin, Adrienne E.; Zhang, Sui-Po; Zivin, Robert A.; Zhong, Zhong Simultaneous intracellular calcium and sodium flux imaging in human vanilloid receptor 1 (VR1)-transfected human embryonic kidney cells: a method to resolve ionic dependence of VR1-mediated cell death. Journal of Pharmacology and Experimental Therapeutics (2002), 300(1), 9-17.)
HEK293 cells were transfected with human VR1 vanilloid receptors and washed with Hank's Balanced Salt Solution, dissociated with cell dissociation buffer (Sigma), and then centrifuged at 1000×g for 5 min. Cell pellets were homogenized in cold 20 mM HEPES buffer, pH 7.4, containing 5.8 mM NaCl, 320 mM sucrose, 2 mM MgCl2, 0.75 CaCl2 and 5 mM KCl and centrifuged at 1000×g for 15 min. The resultant supernate was then centrifuged at 40000×g for 15 min. The pelleted membranes were kept in an −80° C. freezer.
Approximately 120 μg protein/ml from membranes were incubated with indicated concentrations of [^3H] RTX in 0.5 ml of the HEPES buffer (pH 7.4) containing 0.25 mg/mL fatty acid-free bovine serum albumin at 37° C. for 60 min. The reaction mixture was then cooled to 4° C., 0.1 mg α1-acid glycoprotein added to each sample and incubated at 4° C. for 15 min. The samples were centrifuged at 18500×g for 15 min. The tip of the microcentrifuge tube containing the pellet was cut off. Bound radioactivity was quantified by scintillation counting. Non-specific binding was tested in the presence of 200 nM unlabeled RTX.

[2] = molecular target: Rat VR1 (Rattus norvegicus, UniProt O35433); assay: [3H]-RTX binding assay using rat tissue (spinal cord); design: Rat spinal cord was homogenized twice with a Polytron; from tissue; host or cells: rat spinal cord membranes; settings: rat spinal cord membranes
Procedure: Alternatively, a binding assay using rat tissue was used. Rat spinal cord was homogenized twice with a Polytron and centrifuged at 3000 rpm for 10 min in HEPES buffer containing 20 mM HEPES, pH 7.4, NaCl 5.8 mM, sucrose 320 mM, MgCl2 2 mM, CaCl2 0.75 mM and KCl 5 mM. The supernatant was then centrifuged at 18,000 rpm for 20 min. The pellet was saved in a tube and 10 ml assay buffer was added into the tube. The pellet and buffer were mixed with a Polytron. The assay contained 120 μg/ml membrane protein and 0.3-0.6 nM [^3H]-RTX (NEN, Boston) in a total volume of 0.5 ml HEPES buffer. Following-incubation for 60 min at 37 C, the samples were cooled down on ice, and 100 mg of α-acid glycoprotein were added into the samples. After centrifugation at 13,000 rpm for 15 min, the supernatant was aspirated and the tips of tubes were cut off and placed into 6 ml vials. Data were calculated according to the equation: % inhibition=(total binding−binding)*100/(total binding−non specific binding). Ki value values were calculated using a Prism program.

[3] = test system: carrageenan paw-induced thermal hyperalgesia; assay: Carrageenan paw-induced thermal hyperalgesia; assay type: in vivo, rat; settings: for ED50: Rattus norvegicus, po; for % Recovery: at 1 mg/ml
Procedure: Each rat was placed on a heated surface (51° C.) in order to measure the time necessary to elicit a response, and an initial (baseline) response time to a thermal stimuli was recorded for each animal. A response is defined as any shaking, licking, or tucking of the treated paw or jumping. Animals not treated with a test compound respond in approximately 20 seconds. The maximal exposure time permitted is 60 seconds to prevent tissue damage. Rats were injected with an irritant (e.g., 1% carrageenan solution in 0.9% saline) subcutaneously into the sub-plantar tissue of the left hind paw to stimulate an acute inflammatory reaction.
Two hours later, the response time of the animal to the thermal stimulus was evaluated and compared to the animal's baseline response time. This shorter response time was recorded as percent hyperalgesia (% H). A cut-off value for % H (usually 75%) was used during analysis to ensure that the animals were hyperalgesic. Animals were then dosed with test drug or vehicle.
At some time(s) later (typically 45 and 90 minutes), the response time of the animal to the thermal stimulus was again evaluated. For each time point, a percent reversal of hyperalgesia (% R) was calculated using the following formula: % R=(Drug Latency−Carrageenan latency)/(Baseline latency−Carrageenan latency). ED50 values were calculated from % R obtained at several drug doses.

[4] = molecular target: T1, hVR1 receptors; assay: Broadly stimulated recombinant human VR1 functional assay (Ca2+ influx, FLIPR); assay type: cell-based; design: expressed in transfected cells; host or cells: HEK293
[5] = molecular target: T2, VR1 expressed endogenously on small rat dorsal root ganglion (DRG) neurons (Rattus norvegicus, UniProt O35433); assay: Electrophysiologic functional assay using dissociated rat DRG cells (whole cell patch clamp); assay type: cell-based; settings: for inhibition of the response to 1 uM capsaicin: capsaicin-induced currents in rat DRG neurons; for % of the initial CAP response in presence of 1 uM CAP / % of the initial CAP response in presence of 10 uM CAP: initial response to 0.3 uM capsaicin
T2 construct: VR1 expressed endogenously on small rat dorsal root ganglion (DRG) neurons; endogenous in cells; host or cells: dissociated DRG neurons from normal rats
Procedure: Compounds 42, 95, 101, 105 and 106 were tested for their activity on VR1 expressed endogenously on small rat dorsal root ganglion (DRG) neurons. DRG neurons from normal rats were dissociated (see methods in Chaplan et al., 2003) and whole cell currents mediated by VR1 were recorded using the whole cell patch clamp technique. […] This was followed by application of 10 μM CAP in the presence of compound. […] The ability of 1 and 10 μM CAP to cause an increased current after exposure to a compound of the invention was compared to controls.

[6] = 1.5 h, p.o., at 90 min, read-out: ED50
[7] = reversal of hyperalgesia, read-out: CgHP ED50

Sequence of Rat VR1 (O35433 whole entry): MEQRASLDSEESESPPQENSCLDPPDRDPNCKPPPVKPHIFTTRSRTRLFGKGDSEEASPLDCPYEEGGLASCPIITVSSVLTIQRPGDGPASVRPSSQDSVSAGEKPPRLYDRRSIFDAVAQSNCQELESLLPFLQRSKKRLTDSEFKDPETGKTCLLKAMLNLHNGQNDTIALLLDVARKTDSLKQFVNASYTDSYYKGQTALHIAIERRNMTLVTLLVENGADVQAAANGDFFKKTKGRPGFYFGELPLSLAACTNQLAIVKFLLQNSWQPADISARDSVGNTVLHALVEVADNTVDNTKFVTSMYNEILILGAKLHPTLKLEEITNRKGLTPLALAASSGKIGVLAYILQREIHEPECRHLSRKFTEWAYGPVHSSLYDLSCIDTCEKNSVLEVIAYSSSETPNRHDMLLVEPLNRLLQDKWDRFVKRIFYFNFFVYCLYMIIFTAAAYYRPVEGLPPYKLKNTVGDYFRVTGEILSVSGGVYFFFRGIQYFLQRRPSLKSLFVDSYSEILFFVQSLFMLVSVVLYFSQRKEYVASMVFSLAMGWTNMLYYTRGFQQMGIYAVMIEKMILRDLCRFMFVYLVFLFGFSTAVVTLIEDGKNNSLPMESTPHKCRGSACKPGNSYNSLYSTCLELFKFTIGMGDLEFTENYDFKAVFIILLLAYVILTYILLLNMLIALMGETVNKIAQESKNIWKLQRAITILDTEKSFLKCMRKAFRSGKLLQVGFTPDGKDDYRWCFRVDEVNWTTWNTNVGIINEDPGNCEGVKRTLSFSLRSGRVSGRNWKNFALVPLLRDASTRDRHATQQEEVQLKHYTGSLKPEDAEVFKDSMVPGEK
T2 sequence (O35433 whole entry): as above
T1 sequence (Q8NER1 whole entry): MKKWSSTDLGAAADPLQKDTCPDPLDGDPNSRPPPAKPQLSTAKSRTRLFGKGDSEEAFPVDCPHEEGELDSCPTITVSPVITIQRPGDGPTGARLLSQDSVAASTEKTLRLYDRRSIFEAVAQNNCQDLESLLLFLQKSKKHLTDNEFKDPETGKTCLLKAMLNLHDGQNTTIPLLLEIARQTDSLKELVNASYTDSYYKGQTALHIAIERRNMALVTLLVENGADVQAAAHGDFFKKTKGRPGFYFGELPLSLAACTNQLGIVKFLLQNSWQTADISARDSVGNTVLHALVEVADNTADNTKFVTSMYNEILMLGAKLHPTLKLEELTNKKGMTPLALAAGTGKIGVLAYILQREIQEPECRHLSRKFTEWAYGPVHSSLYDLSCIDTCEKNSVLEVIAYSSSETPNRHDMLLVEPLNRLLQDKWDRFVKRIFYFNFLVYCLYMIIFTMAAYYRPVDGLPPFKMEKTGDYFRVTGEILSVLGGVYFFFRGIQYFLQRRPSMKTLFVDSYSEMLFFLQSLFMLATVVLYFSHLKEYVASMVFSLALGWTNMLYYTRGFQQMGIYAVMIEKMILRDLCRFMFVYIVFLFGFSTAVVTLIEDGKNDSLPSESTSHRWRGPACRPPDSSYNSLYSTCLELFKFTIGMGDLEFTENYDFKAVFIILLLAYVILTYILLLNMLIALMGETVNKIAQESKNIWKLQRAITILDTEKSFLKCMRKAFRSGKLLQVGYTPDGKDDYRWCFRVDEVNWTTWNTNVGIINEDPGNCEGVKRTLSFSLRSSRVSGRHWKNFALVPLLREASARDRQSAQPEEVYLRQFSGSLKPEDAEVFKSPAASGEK

Structure (SMILES)	Ki [1]	Ki [2]	also measured
OO [Compound H2O2, H2O2, reference compound]			EC80 for H2O2-induced Ca2+ flux ([4]; VR1/HEK cells, species not stated): 0.015 % H2O2
COc1ccc2c(c1)CCC(NC(=S)NCCc1ccc(Cl)cc1)C2Cc1ccccc1 (stereo not drawn) [Compound 17]			ED50 [3, 7]: 20 mg/kg
COc1ccc2c(c1)CCC(NC(=O)Nc1cccc3cnccc13)C2Cc1ccsc1 (stereo not drawn) [Compound 89]		1080 nM	
Oc1cc2c(cc1O)CN(C(=S)NCCc1ccc(Cl)cc1)CCC2 [Capsazepine, capsazepine, reference compound]			IC50 ([4]; human recombinant receptor, FIG. 1, read-out: potency to inhibit Ca2+ activity induced by the panel of stimuli): 100 to 300 nM
O=C(Nc1cccc2cnccc12)NC1CCc2c(Cl)cccc2C1Cc1ccccc1 (stereo not drawn) [Compound 42]	1.94 nM		% of the initial CAP response in presence of 1 uM CAP ([5]; compound concentration 0.3 uM): 0%
O=C(Nc1cccc2cnccc12)N[C@@H]1CCc2cc(F)ccc2[C@@H]1Cc1ccoc1 (relative stereo) [Compound 88]	15.5 nM	1270 nM	
C=CCC1c2ccccc2CCC1NC(=O)Nc1cccc2cnccc12 (stereo not drawn) [Compound 57]	15.4 nM		ED50 [3, 7]: 0.354 mg/kg
COCOc1ccc(CNC(=S)NC2CCc3ccccc3C2Cc2cccnc2)cc1OC (stereo not drawn) [Compound 4]			ED50 [3, 7]: 0.804 mg/kg
O=C(Nc1cccc2cnccc12)NC1CCc2ccc(Cl)cc2C1Cc1ccccc1 (stereo not drawn) [Compound 41]	4.58 nM		
COc1ccc2c(c1)CCC(NC(=S)NCc1ccc(O)c(OC)c1)C2Cc1cccnc1 (stereo not drawn) [Compound 6]	> 10000 nM		
COc1ccc2c(c1)CC[C@@H](NC(=O)Nc1cccc3cnccc13)[C@H]2Cc1ccccc1Cl (relative stereo) [Compound 49]	2.66 nM		

Second part, led by results:

Ki [1]	Ki [2]	Structure (SMILES)	also measured
2.16 nM	169 nM	O=C(Nc1cccc2cnccc12)NC1CCc2cc(F)ccc2C1Cc1cccc(C(F)(F)F)c1 (single isomer, unassigned) [Compound 118]	
0.93 nM	28.7 nM	O=C(Nc1cccc2cnccc12)NC1CCc2cc(F)ccc2C1Cc1ccc(C(F)(F)F)cc1 (stereo not drawn) [Compound 107]	ED50 [3, 6]: 0.92 mg/kg
5.25 nM	781 nM	Cc1cc2c(NC(=O)NC3CCc4cc(F)ccc4C3Cc3ccccc3)cccc2cn1 (single isomer, unassigned) [Compound 100]	
0.5 nM	152 nM	O=C(Nc1cccc2cnccc12)NC1CCc2cc(F)ccc2C1Cc1cccc(C(F)(F)F)c1 (single isomer, unassigned) [Compound 119]	
1.12 nM	53.1 nM	Cc1cc2c(NC(=O)NC3CCc4cc(F)ccc4C3Cc3ccccc3)cccc2cn1 (single isomer, unassigned) [Compound 101]	inhibition of the response to 1 uM capsaicin [5]: dose dependent; % of the initial CAP response in presence of 1 uM CAP ([5]; compound concentration 0.03 uM): 14%; % of the initial CAP response in presence of 10 uM CAP ([5]; compound concentration 0.03 uM): 54%; % of the initial CAP response in presence of 1 uM CAP ([5]; compound concentration 0.1 uM): 0%; % of the initial CAP response in presence of 10 uM CAP ([5]; compound concentration 0.1 uM): 0%
0.531 nM	185 nM	O=C(Nc1cccc2cnccc12)NC1CCc2cc(F)ccc2C1Cc1cccc(C(F)(F)F)c1 (racemic) [Compound 110]	% Recovery ([3]; at 90 min): 64.3%
73 nM	1700 nM	O=C(Nc1cccc2cnccc12)NC1CCc2ccccc2C12Cc1ccccc1C2 (stereo not drawn) [Compound 122, Spiro{indan-2,1′-(1′,2′,3′,4′-tetrahydronaphthalene)-2′-yl}-3-isoquinolin-5-yl-urea]	
	1480 nM	COc1ccc2c(c1)CC[C@@H](NC(=O)Nc1cccc3cnccc13)[C@@H]2Cc1ccc(F)cc1F (relative stereo) [Compound 91]	
	259 nM	COc1ccc2c(c1)CC[C@@H](NC(=O)Nc1cccc3cnccc13)[C@H]2Cc1ccc(F)cc1F (relative stereo) [Compound 90]	
8.6 nM	2840 nM	O=C(Nc1cccc2c[n+]([O-])ccc12)NC1CCc2cc(Cl)ccc2C1Cc1ccccc1 (stereo not drawn) [Compound 106]	% of the initial CAP response in presence of 1 uM CAP ([5]; compound concentration 1 uM): 2%; % of the initial CAP response in presence of 10 uM CAP ([5]; compound concentration 1 uM): 11%; ED50 [3, 6]: 0.027 mg/kg
95.7 nM	10000 nM	O=C(Nc1cccc2c[n+]([O-])ccc12)NC1CCc2cc(F)ccc2C1Cc1cccc(C(F)(F)F)c1 (single isomer, unassigned) [Compound 120]	% Recovery ([3]; at 90 min): 83.0%
1.7 nM	217 nM	O=C(Nc1cccc2cnccc12)NC1CCc2cc(Cl)ccc2C1Cc1ccccc1 (stereo not drawn) [Compound 95]	inhibition of the response to 1 uM capsaicin [5]: dose dependent; % of the initial CAP response in presence of 1 uM CAP ([5]; compound concentration 0.03 uM): 78%; % of the initial CAP response in presence of 10 uM CAP ([5]; compound concentration 0.03 uM): 1073%
5.75 nM	88.5 nM	O=C(Nc1cccc2c[n+]([O-])ccc12)NC1CCc2cc(F)ccc2C1Cc1cccc(C(F)(F)F)c1 (single isomer, unassigned) [Compound 121]	% Recovery ([3]; at 90 min): 80.1%
29.2 nM		O=C(Nc1cccc2c(Cl)nc(Cl)cc12)NC1CCc2cc(F)ccc2C1Cc1ccccc1 (stereo not drawn) [Compound 109]	

— patent US7678812B2, “Aminotetralin-derived urea modulators of vanilloid VR1 receptor” (Janssen Pharmaceutica NV, priority 2002, dated 2010)
